Source: patent US20050250853A1, “Beta-tubulin inhibitors” (priority 1999, published 2005)
“Also recorded” adds a separate entry of the source.

Key:
[1] = system: β-tubulin; assay: Separation of soluble and polymerized tubulins, Western blot of β-tubulin; assay type: cell-based, human; details: MDA-MB-231 cells, 30 μM, 24 h and 48 h; for formation of modified β-tubulin (second immunoreactive band of lower Mr): free tubulin fraction
Method: FIG. 2. Effects of CEU derivatives on microtubule depolymerization. Exponentially growing MDA-MB-231 cells were incubated in the absence or the presence of 30 μM of CEU derivatives including (A) 4-tBCEU, 4-iPCEU or 4-sBCEU for 24 and 48 h respectively; (B) 2-ECEU, 3-ECEU or 4-ECEU for 24 and 48 h; and (C) 4-tBEU, 4-iPEU, 4-sBEU, 4-tBCPU, CEU or 4-methoxyCEU for 48 h. Free tubulin and microtubule fractions were isolated and analyzed by Western blot. Data are representative of three different experiments.
Separation of soluble and polymerized tubulins from MDA-MB231 cells was carried out as described by Minotti et al. (14) with minor modifications. Briefly, after drug exposure, about 5×10^6 cells in 100-mm petri dishes were washed with PBS at 37° C. and harvested in 3 ml of PBS containing 0.4 μg/ml of taxol using a rubber policeman.
Cells were centrifuged and lysed using 250 μl of microtubule-stabilizing buffer (20 mM Tris-HCl, pH 6.8, 140 mM NaCl, 1 mM MgCl2, 2 mM EDTA, 0.5% Nonidet P-40 and 0.4 μg/ml taxol), and then transferred to 1.5 ml microcentrifuge tubes. Samples were centrifuged at 12,000×g for 10 min at 4° C. and the supernatants containing soluble tubulin were placed in separate microcentrifuge tubes containing 250 μl of 2× Laemmli sample buffer (15). Pellets containing the polymerized tubulin were resuspended in 250 μl of water, followed by two freeze/thawing cycles, and the addition of 250 μl of 2× Laemmli sample buffer. Samples were analyzed by SDS-PAGE and immunoassay was performed as described below.
(§1) Samples (1×10^5 cells) were analyzed by 10% SDS-PAGE using the Laemmli system (15). Membranes were then incubated with PBSMT (PBS, pH 7.4, 5% fat-free dry milk and 0.1% Tween-20) for 1 h at room temperature, and then with 1:500 monoclonal anti-β-tubulin (clone TUB 2.1, Sigma) or 1:400 anti (clone no. SDL.3D10, Sigma) for 1 h. […] Membranes were washed with PBSMT and incubated with 1:2500 peroxidase-conjugated anti-mouse immunoglobulin (Amersham Canada, Oakville, Canada) in PBSMT for 30 min. Detection of the immunoblot was carried out with the ECL Western blotting detection reagent kit (Amersham Canada, Oakville, Canada).

[2] = system: MDA-MB-231 cells; assay: cells; assay type: cell-based, human
Method: (§2) Human breast carcinoma cell line, MDA-MB-231, was obtained from the American Type Culture Collection (ATCC HTB-26; Bethesda, Md.). MDA-MB-231 cells were grown in RPMI 1640 medium supplemented with 10% bovine calf serum (Hyclone, Road Logan, Utah). Wild-type Chinese Hamster Ovary cells (CHO-10001) (7), colchicine- and vinblastine-resistant (CHO-VV 3-2) (8) and taxol-resistant (CHO-TAX 5-6) cells (9) were generously provided by Dr. Fernando Cabral (University of Texas Medical School, Houston, Tex.). These cells were cultured in RPMI 1640 containing 10% fetal bovine serum. SK—N—SH human neuroblastoma cells, (ATCC HTB-11; Bethesda, Md.) were cultured in MEM medium supplemented with 2 mM L-glutamine, 1.5 g/liter sodium bicarbonate, 0.1 mM non-essential amino acids, 1 mM sodium pyruvate and 10% fetal bovine serum. Cells were cultured in a humidified atmosphere at 37° C. in 5% CO2.
(§3) Cytotoxicity was assessed using the MTT assay (3-(4,5-dimethylthiazol-2-yl)-2,5-diphenyltetrazolium bromide) as described by Carmichael et al. (12).

[3] = system: MDA-MB-231 cells; assay: Cell cycle analysis by propidium iodide flow cytometry; assay type: cell-based, human; details: CEU derivatives at 30 μM, 24 h; flow cytometry
Method: FIG. 1. Effect of CEU derivatives on cell cycle. Exponentially growing MDA-MB-231 cells were incubated in the absence or presence of 30 μM of either 4-tBCEU, 4-iPCEU or 4-sBCEU for 24 and 48 h, respectively, at 37° C. The cell cycle was evaluated using propidium iodide staining and flow cytometric analysis. Data are representative of three independent experiments.
Following incubation of MDA-MB-231 cells with 4-tBCEU, 4-iPCEU or 4-sBCEU, the cells were harvested, resuspended in 1 ml PBS and fixed by the addition of 2.4 ml of ice cold anhydrous ethanol. Then, 5×10^5 cells from each sample were centrifuged for 3 min at 1000×g. Cell pellets were resuspended in PBS containing 50 μg/ml of PI and 40 U/ml of ribonuclease A (Boehringer Mannheim, Laval, Calif.). Mixtures were incubated at room temperature for 30 min and cell cycle distribution was analyzed using an Epics Elite ESP flow cytometer (Coulter Corporation, Miami, Fla., USA).
The effect of CEU, namely 4-tBCEU, 4-PCEU and 4-sBCEU, on the cell cycle was analyzed. To this end, exponentially growing MDA-MB-231 cells were treated with 30 μM 4-tBCEU, 4-iPCEU or 4-sBCEU for 24 or 48 h followed by an evaluation of cell cycle distribution by flow cytometry using propidium iodide, a fluorescent DNA dye. […] Induction of mitosis blockage in prophase by CEU derivatives was confirmed by mitotic index analysis as described by Drouin (22).

[4] = system: CHO 10001 cells (wild-type); assay: MTT cytotoxicity on wild-type CHO cells; assay type: cell-based, Chinese hamster; details: Cricetulus griseus, CHO10001; wild-type CHO cells, 120 h, MTT, mean ± SD; read-out: IC50 CHO 10001
Method: as §2, with “Wild-type Chinese Hamster Ovary cells (CHO-10001) (7), colchicine- and vinblastine-resistant (CHO-VV 3-2) (8) and taxol-resistant (CHO-TAX 5-6) cells (9) were generously provided by Dr. Fernando Cabral (University of Texas Medical School, Houston, Tex.).” left out
as §3
(§4) The cytotoxicity of 4-tBCEU, 4-iPCEU and 4-sBCEU in two CHO cell lines having differential sensitivity to antmicrotubule agents was evaluated. These cell lines are derived from parental CHO-10001 cells and express mutated tubulins.

[5] = system: CHO VV 3-2 cells; assay: MTT cytotoxicity on vinblastine- and colchicine-resistant CHO cells expressing mutated tubulin; assay type: cell-based, Chinese hamster; details: Cricetulus griseus, CHO-VV 3-2; vinblastine- and colchicine-resistant CHO cells, 120 h, MTT, mean ± SD; read-out: IC50 CHO VV 3-2
Method: as §2, with “Wild-type Chinese Hamster Ovary cells (CHO-10001) (7), colchicine- and vinblastine-resistant (CHO-VV 3-2) (8) and taxol-resistant (CHO-TAX 5-6) cells (9) were generously provided by Dr. Fernando Cabral (University of Texas Medical School, Houston, Tex.).” left out
as §3, §4

[6] = system: β-tubulin; assay: Competition with antimicrotubule agents for the site of β-tubulin alkylation; assay type: cell-based, human; details: for effect of competitor on formation of modified β-tubulin induced by CEU: MDA-MB-231 cells, 48 h, 30 μM CEU with 5 μM taxol, colchicine or vinblastine or 100 μM iodoacetamide
Method: FIG. 6. Identification of the site of alkylation of β-tubulin by CEU: competition with antimicrotubule agents. […] Data are representative of three different experiments.
as §1
The latter agents were used because they have well defined binding sites on β-tubulin (24-28) and because they were expected to inhibit alkylation by CEU if they shared a common binding site. […] These putative alkylation sites are two nucleophilic mercapto groups of cysteine residues at positions 239 and 354, respectively (25). To assess the possible alkylation of these mercapto residues by CEU, MDA-MB-231 cells were treated with 4-tBCEU in the presence of iodoacetamide, a specific thiol alkylating agent (31, 32). […] Similar experiments were carried out using EBI, a bifunctional alkylating agent that specifically induces cross-linking between Cys239 and Cys354 of β-tubulin (32).

[7] = system: CHO TAX 5-6 cells; assay: MTT cytotoxicity on taxol-resistant CHO cells expressing mutated tubulin; assay type: cell-based, Chinese hamster; details: Cricetulus griseus, CHO-TAX 5-6; taxol-resistant CHO cells, 120 h, MTT, mean ± SD; read-out: IC50 CHO TAX 5-6
Method: as §2, with “Wild-type Chinese Hamster Ovary cells (CHO-10001) (7), colchicine- and vinblastine-resistant (CHO-VV 3-2) (8) and taxol-resistant (CHO-TAX 5-6) cells (9) were generously provided by Dr. Fernando Cabral (University of Texas Medical School, Houston, Tex.).” left out
as §3, §4

Row | Compound | microtubule depolymerization [1] | formation of modified β-tubulin (second immunoreactive band of lower Mr) [1] | cytotoxicity in words (active / inactive CEU) [2] | other results
1 | CCNC(=O)Nc1ccc(C(C)(C)C)cc1 [Example 4-tBEU, 4-tert-butyl[3-(ethyl)ureido]benzene] | no depolymerization | no effect on β-tubulin |  | 
2 | CCc1cccc(NC(=O)NCCCl)c1 [Example 3-ECEU, 3ethyl[3-(2-chloroethyl)ureido]benzene] | delayed in time | delayed in time |  | 
3 | 4-tert-butyl[3-(2-chloropropyl)ureido]benzene [Example 4-tBCPU] | inactive |  | inactive | 
4 | COc1ccc(NC(=O)NCCCl)cc1 [Example 4-methoxyCEU, 4-methoxy[3-(2-chloroethyl)ureido]benzene] | inactive |  |  | 
5 | COc1cc2c(c(OC)c1OC)-c1ccc(OC)c(=O)cc1[C@@H](NC(C)=O)CC2 [Colchicine, reference compound] |  |  |  | accumulation of cells in G2+M [3]: G2+M block
6 | 4-sec-butyl[3-(ethyl)ureido]benzene [Example 4-sBEU] | no depolymerization | no effect on β-tubulin | inactive | 
7 | CCc1ccc(NC(=O)NCCCl)cc1 [Example 4-ECEU, 4-ethyl(3-(2-chloroethyl)ureido]benzene] | delayed in time | delayed in time |  | 
8 | CC[C@]1(O)C[C@@H]2CN(CCc3c([nH]c4ccccc34)[C@@](C(=O)OC)(c3cc4c(cc3OC)N(C)[C@H]3[C@@](O)(C(=O)OC)[C@H](OC(C)=O)[C@]5(CC)C=CCN6CC[C@]43[C@@H]65)C2)C1 [Vinblastine, reference compound] |  | no such band |  | IC50 [4]: 30 ± 3 nM; accumulation of cells in G2+M [3]: G2+M block; IC50 [5]: 94 ± 3 nM; effect of competitor on formation of modified β-tubulin induced by CEU [6]: but not vinblastine, prevented formation of the additional β-tubulin band; also recorded: but not vinblastine, prevented the formation of modified β-tubulin; IC50 [7]: 21 ± 3 nM
9 | NC(=O)CI [iodoacetamide] |  |  |  | effect of pre-treatment on β-tubulin alteration induced by EBI ([6]; 24 h with 5 μM colchicine, 5 μM vinblastine or 100 μM iodoacetamide, then 100 μM EBI for 2 h): abrogated; effect of competitor on formation of modified β-tubulin induced by CEU [6]: completely prevented β-tubulin alkylation by 4-tBCEU
10 | CCc1ccccc1NC(=O)NCCCl [Example 2-ECEU, 2-ethyl[3-(2-chloroethyl)ureido]benzene] | no depolymerization | no effect on β-tubulin | inactive | 
11 | CC(=O)O[C@H]1C(=O)[C@@]2(C)[C@H]([C@H](OC(=O)c3ccccc3)[C@]3(O)C[C@H](OC(=O)[C@H](O)[C@@H](NC(=O)c4ccccc4)c4ccccc4)C(C)=C1C3(C)C)[C@]1(OC(C)=O)CO[C@@H]1C[C@@H]2O [Taxol, reference compound] |  | no such band |  | IC50 [4]: 1700 ± 300 nM; IC50 [5]: 1100 ± 200 nM; effect of competitor on formation of modified β-tubulin induced by CEU [6]: abrogated the formation of modified β-tubulin; IC50 [7]: 6100 nM
12 | CCNC(=O)Nc1ccc(C(C)C)cc1 [Example 4-iPEU, 4-iso-propyl[3-(ethyl)ureido]benzene] | no depolymerization | no effect on β-tubulin |  | 
13 | O=C(NCCCl)Nc1ccccc1 [CEU] | inactive |  | inactive | 
